Test results reported in patent US20250230165A1, “HETEROCYCLIC COMPOUNDS FOR USE IN THE TREATMENT OF CANCER” (ARTIOS PHARMA LIMITED, priority 2021, published 2025).

Biological target: T1, Human Polθ polymerase domain (aa1820-2590) (Homo sapiens, UniProt O75417)
T1 construct: Human Polθ polymerase domain (aa1820-2590) was expressed in E. coli; made in house; host or cells: E. coli
T1 sequence (O75417 1820-2590): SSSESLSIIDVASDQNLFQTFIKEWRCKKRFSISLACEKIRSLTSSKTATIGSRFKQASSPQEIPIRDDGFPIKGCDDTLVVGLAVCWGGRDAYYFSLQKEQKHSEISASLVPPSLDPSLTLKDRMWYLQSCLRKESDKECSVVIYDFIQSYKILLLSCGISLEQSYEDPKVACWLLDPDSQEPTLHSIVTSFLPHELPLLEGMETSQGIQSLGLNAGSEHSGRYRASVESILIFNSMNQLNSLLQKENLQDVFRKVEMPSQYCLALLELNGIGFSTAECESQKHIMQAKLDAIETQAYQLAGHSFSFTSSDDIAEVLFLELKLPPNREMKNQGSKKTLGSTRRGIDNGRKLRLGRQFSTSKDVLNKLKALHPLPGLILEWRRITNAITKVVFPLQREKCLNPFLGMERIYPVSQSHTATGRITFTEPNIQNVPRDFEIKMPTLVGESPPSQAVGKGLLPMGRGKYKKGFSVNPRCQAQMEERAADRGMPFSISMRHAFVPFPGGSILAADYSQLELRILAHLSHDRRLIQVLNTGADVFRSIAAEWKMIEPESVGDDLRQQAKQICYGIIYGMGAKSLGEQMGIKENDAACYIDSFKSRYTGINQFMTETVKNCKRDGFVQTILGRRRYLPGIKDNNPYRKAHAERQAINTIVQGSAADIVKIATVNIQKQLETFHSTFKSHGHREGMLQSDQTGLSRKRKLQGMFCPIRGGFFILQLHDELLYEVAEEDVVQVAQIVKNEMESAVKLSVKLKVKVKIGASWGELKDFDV
Test: Polθ Polymerase Domain Kinact/KI Assay (PicoGreen)
Format: biochemical
Details: 0.8 nM Polθ, 100 nM DNA substrate, kobs vs [I] fit for 2-step covalent inhibitor
Procedure, shortened: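 Enzyme 0.8 nM, annealed DNA substrate 100 nM, […]; 25 mM Tris pH 7.5, 5% glycerol, 0.01% Triton X-100, 0.1 mg/ml BSA, 1 mM DTT, 1% DMSO. Quench with EDTA at timepoints to 60 min; PicoGreen read. kobs from time courses → Kinact/KI.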

Row | SMILES | Kinact/Kl [M⁻¹ s⁻¹]
1 | C=CC(=O)N1Cc2nc(CN3C[C@H]4CC(=O)N(c5cc(C(F)(F)F)cc(C)n5)[C@@H]4C(=O)N(C)c4cccc(C)c43)ccc2[C@H]1CC#N (racemic) [Example 319a, 2-((S/R)-6-acryloyl-2-(((3aR,11aS)-6,10-dimethyl-1-(6-meth-yl-4-(trifluorometh-yl)pyridin-2-yl)-2,11-dioxo-1,2,3,3a,4,10,11,11a-octahydro-5H-benzo [b]pyrrolo[2,3-][1,4]diazocin-5-yl)meth-yl)-6,7-dihydro-5H-pyrrolo[3,4-b]pyr-idin-5-yl)acetonitrile] | 2.17e+06
2 | C=CC(=O)N1Cc2nc(CN3C[C@H]4CC(=O)N(c5cc(C(F)(F)F)cc(C)n5)[C@@H]4C(=O)N(C)c4cccc(C)c43)ccc2[C@H]1CC#N (racemic) [Example 319b, 2-((R/S)-6-acryloyl-2-(((3aR,11aS)-6,10-dimethyl-1-(6-meth-yl-4-(trifluorometh-yl)pyridin-2-yl)-2,11-dioxo-1,2,3,3a, 4,10,11,11a-octa-hydro-5H-benzo[b]pyrrolo[2,3-f][1,4]diazocin-5-yl)meth-yl)-6,7-dihydro-5H-pyrrolo[3,4-b]pyr-idin-5-yl)acetonitrile] | 1.66e+06
3 | C=CC(=O)N1Cc2ncc(CN3C[C@H]4CC(=O)N(c5cc(C(F)(F)F)cc(C)n5)[C@@H]4C(=O)N(C)c4cccc(C)c43)cc2[C@H]1CC#N (racemic) [Example 320a, 2-((R/S)-6-acryloyl-3-(((3aR,11aS)-6,10-dimethyl-1-(6-meth-yl-4-(trifluorometh-yl)pyridin-2-yl)-2,11-dioxo-1,2,3,3a, 4,10,11,11a-octa-hydro-5H-benzo[b]pyrrolo[2,3-f][1,4]diazocin-5-yl)meth-yl)-6,7-dihydro-5H-pyrrolo[3,4-b]pyr-idin-5-yl)acetonitrile] | 1.37e+06
4 | C=CC(=O)N1Cc2ncc(CN3C[C@H]4CC(=O)N(c5cc(C(F)(F)F)cc(C)n5)[C@@H]4C(=O)N(C)c4cccc(C)c43)cc2[C@@H]1CC#N (racemic) [Example 320b, 2-((S/R)-6-acryloyl-3-(((3aR,11aS)-6,10-dimethyl-1-(6-meth-yl-4-(trifluorometh-yl)pyridin-2-yl)-2,11-dioxo-1,2,3,3a, 4, 10,11,11a-octa-hydro-5H-benzo[b]pyrrolo[2,3-f][1,4]diazocin-5-yl)meth-yl)-6,7-dihydro-5H-pyrrolo[3,4-b]pyr-idin-5-yl)acetonitrile] | 2.48e+06
5 | C=CC(=O)N1Cc2cc(CN3C[C@H]4CC(=O)N(c5cc(C(F)(F)F)cc(C)n5)[C@@H]4C(=O)N(C)c4cccc(C)c43)cnc2[C@@H]1CC#N (racemic) [Example 321a, 2-((S/R)-6-acryloyl-3-(((3aR,11aS)-6,10-dimethyl-1-(6-meth-yl-4-(trifluorometh-yl)pyridin-2-yl)-2,11-dioxo-1,2,3,3a, 4,10,11,11a-octa-hydro-5H-benzo[b]pyrrolo[2,3-f][1,4]diazocin-5-yl)meth-yl)-6,7-dihydro-5H-pyrrolo[3,4-b]pyr-idin-7-yl)acetonitrile] | 1.57e+06
6 | C=CC(=O)N1Cc2cc(CN3C[C@H]4CC(=O)N(c5cc(C(F)(F)F)cc(C)n5)[C@@H]4C(=O)N(C)c4cccc(C)c43)cnc2[C@H]1CC#N (racemic) [Example 321b, 2-((R/S)-6-acryloyl-3-(((3aR,11aS)-6,10-dimethyl-1-(6-meth-yl-4-(trifluorometh-yl)pyridin-2-yl)-2,11-dioxo-1,2,3,3a, 4,10,11,11a-octa-hydro-5H-benzo[b]pyrrolo[2,3-f][1,4]diazocin-5-yl)meth-yl)-6,7-dihydro-5H-pyrrolo[3,4-b]pyr-idin-7-yl)acetonitrile] | 690000
7 | C=CC(=O)N1Cc2nc(CN3C[C@H]4CC(=O)N(c5cc(C(F)(F)F)cc(C)n5)[C@@H]4C(=O)N(C)c4cccc(C)c43)cn2C[C@H]1C(F)(F)F (racemic) [Example 322a, (3aR,11aS)-5-(((S/R)-7-acryloyl-6-(trifluoromethyl)-5,6,7,8-tetrahydro-imidazo[1,2-a]pyr-azin-2-yl)methyl)-6,10-dimethyl-1-(6-methyl-4-(trifluoro-methyl)pyridin-2-yl)-1,3a,4,5,10,11a-hexahydro-2H-benzo[b]pyrrolo [2,3-f][1,4]diazo-cine-2,11(3H)-dione] | 1.56e+06
8 | C=CC(=O)N1Cc2nc(CN3C[C@H]4CC(=O)N(c5cc(C(F)(F)F)cc(C)n5)[C@@H]4C(=O)N(C)c4cccc(C)c43)cn2C[C@@H]1C(F)(F)F (racemic) [Example 322b, (3aR,11aS)-5-(((R/S)-7-acryloyl-6-(trifluoromethyl)-5,6,7,8-tetrahydro-imidazo[1,2-a]pyr-azin-2-yl)methyl)-6,10-dimethyl-1-(6-methyl-4-(trifluoro-methyl)pyridin-2-yl)-1,3a,4,5,10,11a-hexahydro-2H-benzo[b]pyrrolo[2,3-f][1,4]diazocine-2,11(3H)-dione] | 1.13e+06
9 | C=CC(=O)N1CCOC[C@H]1c1ccc(CN2C[C@H]3CC(=O)N(c4cc(C(F)(F)F)cc(C)n4)[C@@H]3C(=O)N(C)c3cccc(C)c32)cc1 (racemic) [Example 323a, (3aR,11aS)-5-(4-((R/S)-4-acryloyl-morpholin-3-yl)-benzyl)-6,10-di-methyl-1-(6-meth-yl-4-(trifluorometh-yl)pyridin-2-yl)-1,3a,4,5,10,11a-hexahydro-2H-benzo[b]pyrrolo [2,3-f][1,4]diazo-cine-2,11(3H)-dione] | 640000
10 | C=CC(=O)N1CCOC[C@@H]1c1ccc(CN2C[C@H]3CC(=O)N(c4cc(C(F)(F)F)cc(C)n4)[C@@H]3C(=O)N(C)c3cccc(C)c32)cc1 (racemic) [Example 323b, (3aR,11aS)-5-(4-((S/R)-4-acryloyl-morpholin-3-yl)-benzyl)-6,10-dimeth-yl-1-(6-methyl-4-(trifluoromethyl)-pyridin-2-yl)-1,3a,4,5,10,11a-hexahydro-2H-benzo[b]pyrrolo [2,3-f][1,4]diazocine-2,11(3H)-dione] | 330000
11 | C=CC(=O)N1CCOC[C@H]1c1ccc(CN2C[C@H]3CC(=O)N(c4cc(C(F)(F)F)cc(C)n4)[C@@H]3C(=O)N(C)c3cccc(C)c32)cn1 (racemic) [Example 324a, (3aR,11aS)-5-((6-((R/S)-4-acryloyl-morpholin-3-yl)pyr-idin-3-yl)methyl)-6,10-dimethyl-1-(6-methyl-4-(trifluoro-methyl)pyridin-2-yl)-1,3a,4,5,10, 11a-hexahydro-2H-benzo[b]pyrrolo [2,3-f][1,4]diazo-cine-2,11(3H)-dione] | 150000
12 | C=CC(=O)N1CCOC[C@@H]1c1ccc(CN2C[C@H]3CC(=O)N(c4cc(C(F)(F)F)cc(C)n4)[C@@H]3C(=O)N(C)c3cccc(C)c32)cn1 (racemic) [Example 324b, (3aR,11aS)-5-((6-((S/R)-4-acryloyl-morpholin-3-yl)pyr-idin-3-yl)methyl)-6,10-dimethyl-1-(6-methyl-4-(trifluoro-methyl)pyridin-2-yl)-1,3a,4,5,10,11a-hexahydro-2H-benzo[b]pyrrolo [2,3-f][1,4]diazo-cine-2,11(3H)-dione] | 470000
13 | C=C(CN(C)C)C(=O)N[C@H]1CCc2nc(CN3C[C@H]4CC(=O)N(c5cc(C(F)(F)F)cc(C)n5)[C@@H]4C(=O)N(C)c4cccc(C)c43)cn2C1 (racemic) [Example 329b, N-((S/R)-2-(((3aR, 11aS)-6,10-dimethyl-1-(6-methyl-4-(tri-fluoromethyl)pyridin-2-yl)-2,11-dioxo-1,2,3,3a,4,10,11,11a-octahydro-5H-benzo [b]pyrrolo[2,3-f][1,4]diazocin-5-yl)meth-yl)-5,6,7,8-tetrahydro-imidazo[1,2-a]pyr-idin-6-yl)-2-((dimeth-ylamino)methyl)-acrylamide] | 5.73e+06
14 | C=C(CN(C)C)C(=O)N[C@H]1CCn2cc(CN3C[C@H]4CC(=O)N(c5cc(C(F)(F)F)cc(C)n5)[C@@H]4C(=O)N(C)c4cccc(C)c43)nc2C1 (racemic) [Example 330a, N-((S/R)-2-(((3aR, 11aS)-6,10-dimethyl-1-(6-methyl-4-(trifluoromethyl)-pyridin-2-yl)-2,11-dioxo-1,2,3,3a,4,10, 11,11a-octahydro-5H-benzo[b]pyrrolo [2,3-f][1,4]diazocin-5-yl)methyl)-5,6,7,8-tetrahydroimidazo [1,2-a]pyridin-7-yl)-2-((dimethylamino)-methyl)acrylamide] | 2.74e+06
